Laboratory results taken from PubChem BioAssay (NCI).
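Each compound was tested at five concentrations against cells in 96-well plates for 48 hours. The concentration for 50% growth inhibition is given as GI50. TGI: total growth inhibition.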

Assays:
Test in all cases: NCI tumour cell line growth inhibition, 48 h
786-0 renal = system: 786-0 renal
A498 renal = system: A498 renal
A549 NSCLC = system: A549 NSCLC
ACHN renal = system: ACHN renal
BT-549 breast = system: BT-549 breast
CAKI-1 renal = system: CAKI-1 renal
CCRF-CEM leukemia = system: CCRF-CEM leukemia
COLO 205 colon = system: COLO 205 colon
DU-145 prostate = system: DU-145 prostate
EKVX NSCLC = system: EKVX NSCLC
HCC-2998 colon = system: HCC-2998 colon
HCT-116 colon = system: HCT-116 colon
HCT-15 colon = system: HCT-15 colon
HL-60(TB) leukemia = system: HL-60(TB) leukemia
HOP-62 NSCLC = system: HOP-62 NSCLC
HOP-92 NSCLC = system: HOP-92 NSCLC
HS 578T breast = system: HS 578T breast
HT29 colon = system: HT29 colon
IGROV1 ovarian = system: IGROV1 ovarian
K-562 leukemia = system: K-562 leukemia
KM12 colon = system: KM12 colon
LOX IMVI melanoma = system: LOX IMVI melanoma
M14 melanoma = system: M14 melanoma
MALME-3M melanoma = system: MALME-3M melanoma
MCF7 breast = system: MCF7 breast
MDA-MB-231 breast = system: MDA-MB-231 breast
MDA-MB-435 = system: MDA-MB-435
MDA-MB-468 breast = system: MDA-MB-468 breast
MOLT-4 leukemia = system: MOLT-4 leukemia
NCI-H226 lung = system: NCI-H226 lung
NCI-H23 lung = system: NCI-H23 lung
NCI-H460 lung = system: NCI-H460 lung
NCI-H522 lung = system: NCI-H522 lung
NCI/ADR-RES ovarian = system: NCI/ADR-RES ovarian
OVCAR-3 ovarian = system: OVCAR-3 ovarian
OVCAR-4 ovarian = system: OVCAR-4 ovarian
OVCAR-5 ovarian = system: OVCAR-5 ovarian
OVCAR-8 ovarian = system: OVCAR-8 ovarian
PC-3 prostate = system: PC-3 prostate
RPMI-8226 leukemia = system: RPMI-8226 leukemia
RXF 393 renal = system: RXF 393 renal
SF-268 CNS = system: SF-268 CNS
SF-295 CNS = system: SF-295 CNS
SF-539 CNS = system: SF-539 CNS
SK-MEL-2 melanoma = system: SK-MEL-2 melanoma
SK-MEL-28 melanoma = system: SK-MEL-28 melanoma
SK-MEL-5 melanoma = system: SK-MEL-5 melanoma
SK-OV-3 ovarian = system: SK-OV-3 ovarian
SN12C renal = system: SN12C renal
SNB-19 CNS = system: SNB-19 CNS
SNB-75 CNS = system: SNB-75 CNS
SR leukemia = system: SR leukemia
SW-620 colon = system: SW-620 colon
T-47D breast = system: T-47D breast
TK-10 renal = system: TK-10 renal
U251 CNS = system: U251 CNS
UACC-257 melanoma = system: UACC-257 melanoma
UACC-62 melanoma = system: UACC-62 melanoma
UO-31 renal = system: UO-31 renal

## NS(=O)(=O)c1ccc(N2N=C(c3ccc(NC(=O)Nc4ccccc4)cc3)CC2c2ccc(Br)cc2)cc1 (stereo not drawn)
786-0 renal
  GI50: 2.95 µM
  TGI: 10.1 µM
A498 renal
  GI50: 1.98 µM
  TGI: 4.99 µM
A549 NSCLC
  GI50: 3.08 µM
  TGI: 11.3 µM
ACHN renal
  GI50: 2.88 µM
  TGI: 8.93 µM
BT-549 breast
  GI50: 2.03 µM
  TGI: 4.22 µM
CAKI-1 renal
  GI50: 2.64 µM
  TGI: 8.44 µM
CCRF-CEM leukemia
  GI50: 2.34 µM
  TGI: 5.95 µM
COLO 205 colon
  GI50: 1.79 µM
  TGI: 3.39 µM
DU-145 prostate
  GI50: 2.87 µM
  TGI: 8.67 µM
EKVX NSCLC
  GI50: 3.19 µM
  TGI: 13.6 µM
HCC-2998 colon
  GI50: 1.6 µM
  TGI: 3.06 µM
HCT-116 colon
  GI50: 1.75 µM
  TGI: 3.56 µM
HCT-15 colon
  GI50: 2.58 µM
  TGI: 10.1 µM
HL-60(TB) leukemia
  GI50: 2.12 µM
  TGI: 5.59 µM
HOP-62 NSCLC
  GI50: 2.01 µM
  TGI: 4.78 µM
HOP-92 NSCLC
  GI50: 1.98 µM
  TGI: 5.24 µM
HS 578T breast
  GI50: 2.52 µM
  TGI: 7.86 µM
HT29 colon
  GI50: 1.92 µM
  TGI: 4.53 µM
IGROV1 ovarian
  GI50: 2.86 µM
  TGI: 10.6 µM
K-562 leukemia
  GI50: 3.16 µM
  TGI: > 100 µM
KM12 colon
  GI50: 2.62 µM
  TGI: 6.92 µM
LOX IMVI melanoma
  GI50: 1.73 µM
  TGI: 3.12 µM
M14 melanoma
  GI50: 2.11 µM
  TGI: 4.5 µM
MALME-3M melanoma
  GI50: 2.15 µM
  TGI: 5.76 µM
MCF7 breast
  GI50: 2.6 µM
  TGI: 10.2 µM
MDA-MB-231 breast
  GI50: 1.93 µM
  TGI: 4.03 µM
MDA-MB-435
  GI50: 2.02 µM
  TGI: 7.47 µM
MDA-MB-468 breast
  GI50: 2.01 µM
  TGI: 5.38 µM
MOLT-4 leukemia
  GI50: 2.66 µM
  TGI: 11.4 µM
NCI-H226 lung
  GI50: 2.34 µM
  TGI: 6.76 µM
NCI-H23 lung
  GI50: 1.85 µM
  TGI: 3.73 µM
NCI-H460 lung
  GI50: 1.92 µM
  TGI: 4.25 µM
NCI-H522 lung
  GI50: 2.67 µM
  TGI: 8.23 µM
NCI/ADR-RES ovarian
  GI50: 1.91 µM
  TGI: 4 µM
OVCAR-3 ovarian
  GI50: 1.86 µM
  TGI: 4.34 µM
OVCAR-4 ovarian
  GI50: 2.55 µM
  TGI: 10.5 µM
OVCAR-5 ovarian
  GI50: 2.14 µM
  TGI: 5.4 µM
OVCAR-8 ovarian
  GI50: 3.55 µM
  TGI: 16.1 µM
PC-3 prostate
  GI50: 2.73 µM
  TGI: 9.76 µM
RPMI-8226 leukemia
  GI50: 2.11 µM
  TGI: 5.26 µM
RXF 393 renal
  GI50: 1.82 µM
  TGI: 4.96 µM
SF-268 CNS
  GI50: 2.63 µM
  TGI: 11.2 µM
SF-295 CNS
  GI50: 3.18 µM
  TGI: 12.7 µM
SF-539 CNS
  GI50: 2.06 µM
  TGI: 4.63 µM
SK-MEL-2 melanoma
  GI50: 5.38 µM
  TGI: 19.9 µM
SK-MEL-28 melanoma
  GI50: 2.66 µM
  TGI: 7.26 µM
SK-MEL-5 melanoma
  GI50: 1.77 µM
  TGI: 3.39 µM
SK-OV-3 ovarian
  GI50: 3.48 µM
  TGI: 14.2 µM
SN12C renal
  GI50: 1.68 µM
  TGI: 3.15 µM
SNB-19 CNS
  GI50: 4.11 µM
  TGI: 15.7 µM
SNB-75 CNS
  GI50: 1.76 µM
  TGI: 11.7 µM
SR leukemia
  GI50: 2.71 µM
  TGI: 9.08 µM
SW-620 colon
  GI50: 2.5 µM
T-47D breast
  GI50: 2.87 µM
  TGI: 11.6 µM
TK-10 renal
  GI50: 3.13 µM
  TGI: 12.4 µM
U251 CNS
  GI50: 2.72 µM
  TGI: 8.65 µM
UACC-257 melanoma
  GI50: 5.32 µM
  TGI: 20.4 µM
UACC-62 melanoma
  GI50: 1.64 µM
  TGI: 3.23 µM
UO-31 renal
  GI50: 2.57 µM
  TGI: 10.7 µM

## C=C1CCC2C3(C)COC(c4ccco4)OC3CCC2(C)C1CC(Sc1ccccc1)C1=CCOC1=O (stereo not drawn)
786-0 renal
  GI50: 14.3 µM
  TGI: 34.1 µM
A498 renal
  GI50: > 100 µM
  TGI: > 100 µM
A549 NSCLC
  GI50: 18.7 µM
  TGI: > 100 µM
ACHN renal
  GI50: 14.1 µM
  TGI: > 100 µM
BT-549 breast
  GI50: 3.97 µM
  TGI: 16.9 µM
CAKI-1 renal
  GI50: 18.4 µM
  TGI: > 100 µM
CCRF-CEM leukemia
  GI50: 2.12 µM
  TGI: > 100 µM
COLO 205 colon
  GI50: 24.4 µM
  TGI: > 100 µM
DU-145 prostate
  GI50: 9.01 µM
  TGI: 73.6 µM
EKVX NSCLC
  GI50: 11 µM
  TGI: > 100 µM
HCC-2998 colon
  GI50: 21.1 µM
  TGI: > 100 µM
HCT-116 colon
  GI50: 4.39 µM
  TGI: 17.9 µM
HCT-15 colon
  GI50: 6.66 µM
  TGI: 52.9 µM
HL-60(TB) leukemia
  GI50: 2.82 µM
  TGI: 36.4 µM
HOP-62 NSCLC
  GI50: 23.5 µM
  TGI: > 100 µM
HOP-92 NSCLC
  GI50: 16.5 µM
  TGI: > 100 µM
HS 578T breast
  GI50: 35.7 µM
  TGI: > 100 µM
HT29 colon
  GI50: 4.26 µM
  TGI: 26.1 µM
IGROV1 ovarian
  GI50: 17.8 µM
  TGI: > 100 µM
K-562 leukemia
  GI50: 3.62 µM
  TGI: > 100 µM
KM12 colon
  GI50: 12.1 µM
  TGI: > 100 µM
LOX IMVI melanoma
  GI50: 1.81 µM
  TGI: 4 µM
M14 melanoma
  GI50: 15.7 µM
  TGI: 69.2 µM
MALME-3M melanoma
  GI50: 35.6 µM
  TGI: > 100 µM
MCF7 breast
  GI50: 3.75 µM
  TGI: 41 µM
MDA-MB-231 breast
  GI50: 14.3 µM
  TGI: 53.2 µM
MDA-MB-435
  GI50: 8.94 µM
  TGI: > 100 µM
MDA-MB-468 breast
  GI50: 3.8 µM
  TGI: 16.7 µM
MOLT-4 leukemia
  GI50: 4.41 µM
  TGI: > 100 µM
NCI-H226 lung
  GI50: 6.22 µM
  TGI: 62.6 µM
NCI-H23 lung
  GI50: 21.5 µM
  TGI: 88.9 µM
NCI-H460 lung
  GI50: 21.7 µM
  TGI: > 100 µM
NCI-H522 lung
  GI50: 7.51 µM
  TGI: 20.4 µM
NCI/ADR-RES ovarian
  GI50: 2.6 µM
  TGI: 6.95 µM
OVCAR-3 ovarian
  GI50: 3.78 µM
  TGI: 12.5 µM
OVCAR-4 ovarian
  GI50: 14.7 µM
  TGI: > 100 µM
OVCAR-5 ovarian
  GI50: 21.7 µM
  TGI: 91 µM
OVCAR-8 ovarian
  GI50: 3.05 µM
  TGI: 14.3 µM
PC-3 prostate
  GI50: 6.71 µM
  TGI: > 100 µM
RPMI-8226 leukemia
  GI50: 2.36 µM
  TGI: 8.23 µM
RXF 393 renal
  GI50: 8.05 µM
  TGI: 49.1 µM
SF-268 CNS
  GI50: 59.5 µM
  TGI: > 100 µM
SF-295 CNS
  GI50: 25.7 µM
  TGI: > 100 µM
SF-539 CNS
  GI50: 4.12 µM
  TGI: 15.6 µM
SK-MEL-2 melanoma
  GI50: 7.3 µM
  TGI: 22 µM
SK-MEL-28 melanoma
  GI50: 28.5 µM
  TGI: > 100 µM
SK-MEL-5 melanoma
  GI50: 10.8 µM
  TGI: 22.9 µM
SK-OV-3 ovarian
  GI50: 80.1 µM
  TGI: > 100 µM
SN12C renal
  GI50: 9.46 µM
  TGI: > 100 µM
SNB-19 CNS
  GI50: 42.3 µM
  TGI: > 100 µM
SNB-75 CNS
  GI50: 8.98 µM
  TGI: > 100 µM
SW-620 colon
  GI50: 3.43 µM
  TGI: 15 µM
T-47D breast
  GI50: 14.4 µM
  TGI: > 100 µM
TK-10 renal
  GI50: 97.7 µM
  TGI: > 100 µM
U251 CNS
  GI50: 5.88 µM
  TGI: 20.3 µM
UACC-257 melanoma
  GI50: 21.9 µM
  TGI: > 100 µM
UACC-62 melanoma
  GI50: 12.4 µM
  TGI: 31.8 µM
UO-31 renal
  GI50: 13.4 µM
  TGI: > 100 µM
